≈ marks a conversion by molar mass, not a printed value.
How the values were obtained:
[1] = Solubility in simulated gastrointestinal fluids (SGF, FeSSIF, FaSSIF) at 37° C.; assay type: physicochemical; details: for Solubility: 37° C.; for Solubility / pH of filtrate: listed as Sample 5; for solubility at 30 min / solubility at 2 h / solubility at 24 h: 37 °C, thermodynamic from solid
Protocol: The solubilities of Compound A and p-toluenesulfonate (Sample 5, crystal form I) in simulated gastrointestinal fluids (SGF, FeSSIF and FaSSIF) at 37° C. were tested.
About 7.5 mg of Compound A and p-toluenesulfonate were separately added to 1.5 mL of three biological vehicles to prepare suspensions. All the suspensions were placed in a shaker at 37° C. and shaken at 200 rpm for 24 h, and about 0.5 mL was sampled separately at 0.5 h, 2 h and 24 h for filtration. The obtained filtrates were subjected to HPLC analysis and pH measurement, and the filter cakes were respectively measured by XRPD.

PI3Kδ (p110δ/p85a) = biological target: T1, PI3Kδ (p110δ/p85a) (Homo sapiens, UniProt O00329); test: ADP-Glo kinase inhibition, PI3Kδ; details: read-out: IC50 PI3Kδ Biochemical
T1 construct: purchased Invitrogen PV6452
T1 sequence (O00329 whole entry): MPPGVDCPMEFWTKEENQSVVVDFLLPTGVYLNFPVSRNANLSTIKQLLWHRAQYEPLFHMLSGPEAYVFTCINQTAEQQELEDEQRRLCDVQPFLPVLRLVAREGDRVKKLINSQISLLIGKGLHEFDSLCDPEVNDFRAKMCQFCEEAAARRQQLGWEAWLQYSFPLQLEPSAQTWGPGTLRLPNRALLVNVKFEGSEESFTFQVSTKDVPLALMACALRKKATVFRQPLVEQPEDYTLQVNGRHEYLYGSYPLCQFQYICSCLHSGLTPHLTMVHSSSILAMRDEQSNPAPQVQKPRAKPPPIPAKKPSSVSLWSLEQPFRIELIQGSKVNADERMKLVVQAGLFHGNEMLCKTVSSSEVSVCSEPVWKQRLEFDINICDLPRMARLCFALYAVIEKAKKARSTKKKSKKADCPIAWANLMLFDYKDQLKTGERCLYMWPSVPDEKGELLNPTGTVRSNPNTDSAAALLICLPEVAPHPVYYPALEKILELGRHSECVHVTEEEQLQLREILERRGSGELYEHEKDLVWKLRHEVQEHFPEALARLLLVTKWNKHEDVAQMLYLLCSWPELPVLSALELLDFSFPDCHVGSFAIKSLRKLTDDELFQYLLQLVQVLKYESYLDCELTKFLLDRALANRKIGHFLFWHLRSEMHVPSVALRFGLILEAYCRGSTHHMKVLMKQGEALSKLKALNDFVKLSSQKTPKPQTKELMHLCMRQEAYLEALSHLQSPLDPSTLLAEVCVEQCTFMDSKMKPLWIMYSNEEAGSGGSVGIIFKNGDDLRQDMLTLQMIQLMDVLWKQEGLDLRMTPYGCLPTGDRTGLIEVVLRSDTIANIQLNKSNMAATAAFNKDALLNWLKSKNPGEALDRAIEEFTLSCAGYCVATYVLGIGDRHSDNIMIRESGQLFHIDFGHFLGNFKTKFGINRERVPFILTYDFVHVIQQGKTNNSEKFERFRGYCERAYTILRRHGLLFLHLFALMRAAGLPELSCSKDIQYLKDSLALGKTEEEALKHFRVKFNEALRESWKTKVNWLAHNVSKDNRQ
T1 sequence (P27986 whole entry partner): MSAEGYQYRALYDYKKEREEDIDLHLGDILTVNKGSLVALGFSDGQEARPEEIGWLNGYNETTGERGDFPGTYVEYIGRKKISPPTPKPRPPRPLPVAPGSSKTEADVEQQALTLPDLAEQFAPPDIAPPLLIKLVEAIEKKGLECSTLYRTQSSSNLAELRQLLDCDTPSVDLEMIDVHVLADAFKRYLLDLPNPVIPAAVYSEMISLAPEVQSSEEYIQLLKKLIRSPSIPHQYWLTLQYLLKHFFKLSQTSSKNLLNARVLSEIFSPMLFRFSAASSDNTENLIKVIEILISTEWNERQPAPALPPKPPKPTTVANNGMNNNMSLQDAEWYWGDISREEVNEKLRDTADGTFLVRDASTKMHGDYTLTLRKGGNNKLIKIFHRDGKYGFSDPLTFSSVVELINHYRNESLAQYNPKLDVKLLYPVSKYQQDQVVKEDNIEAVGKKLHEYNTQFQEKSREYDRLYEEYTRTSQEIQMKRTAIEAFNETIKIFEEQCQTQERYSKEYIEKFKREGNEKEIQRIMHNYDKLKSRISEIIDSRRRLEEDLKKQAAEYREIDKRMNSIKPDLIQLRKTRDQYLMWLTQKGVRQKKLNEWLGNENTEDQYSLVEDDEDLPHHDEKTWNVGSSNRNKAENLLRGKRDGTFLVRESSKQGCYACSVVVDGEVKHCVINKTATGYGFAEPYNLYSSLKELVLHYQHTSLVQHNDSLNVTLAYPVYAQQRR
Protocol: (§1) In Example 7, the inhibitory effects of Sample 6 prepared in Example 6 above on kinases PI3Kα, PI3Kβ, PI3Kγ and PI3Kδ were tested.
(§2) The kinases used in the experiment were respectively purchased from: • PI3Kα (p110α/p85α), purchased from Invitrogen, under Cat. No. PV4788; • PI3Kβ (p110β), purchased from eurofins, under Cat. No. 14-603M; • PI3Kδ (p110δ/p85a), purchased from Invitrogen, under Cat. No. PV6452; and • PI3Kγ (p110γ), purchased from Invitrogen, under Cat. No. PR8641C. • Firstly, a 1× kinase buffer solution was prepared, which comprised: • 50 mM HEPES, pH 7.5 • 3 mM MgCl2 • 1 mM EGTA • 100 mM NaCl • 0.03% CHAPS • 2 mM DTT
On kinase PI3Kδ, the final detection concentration of the compound was 1 μM. 100× concentration was prepared, i.e., 100 μM. 90 μL of 100% DMSO was added to the second well in row B on a 96-well plate, 10 μL of a 1000 μM compound solution was then taken from the second well in row A, and 3-fold serial dilution was made to obtain a total of 10 concentrations.
(§3) 50 μL of 100% DMSO was transferred to two empty wells as Max well and Min well, respectively.
50 nL of the compound was transferred into a 384-well plate using ECHO550. […]
(§4) Finally, the chemiluminescence values were read from Envision 2104 Multi-label Reader and subjected to curve fitting, and IC50 was calculated.

PI3Kγ (p110γ) = biological target: T2, PI3Kγ (p110γ) (Homo sapiens, UniProt P48736); test: ADP-Glo kinase inhibition, PI3Kγ; details: read-out: IC50 PI3Kγ Biochemical
T2 construct: purchased Invitrogen PR8641C
T2 sequence (P48736 whole entry): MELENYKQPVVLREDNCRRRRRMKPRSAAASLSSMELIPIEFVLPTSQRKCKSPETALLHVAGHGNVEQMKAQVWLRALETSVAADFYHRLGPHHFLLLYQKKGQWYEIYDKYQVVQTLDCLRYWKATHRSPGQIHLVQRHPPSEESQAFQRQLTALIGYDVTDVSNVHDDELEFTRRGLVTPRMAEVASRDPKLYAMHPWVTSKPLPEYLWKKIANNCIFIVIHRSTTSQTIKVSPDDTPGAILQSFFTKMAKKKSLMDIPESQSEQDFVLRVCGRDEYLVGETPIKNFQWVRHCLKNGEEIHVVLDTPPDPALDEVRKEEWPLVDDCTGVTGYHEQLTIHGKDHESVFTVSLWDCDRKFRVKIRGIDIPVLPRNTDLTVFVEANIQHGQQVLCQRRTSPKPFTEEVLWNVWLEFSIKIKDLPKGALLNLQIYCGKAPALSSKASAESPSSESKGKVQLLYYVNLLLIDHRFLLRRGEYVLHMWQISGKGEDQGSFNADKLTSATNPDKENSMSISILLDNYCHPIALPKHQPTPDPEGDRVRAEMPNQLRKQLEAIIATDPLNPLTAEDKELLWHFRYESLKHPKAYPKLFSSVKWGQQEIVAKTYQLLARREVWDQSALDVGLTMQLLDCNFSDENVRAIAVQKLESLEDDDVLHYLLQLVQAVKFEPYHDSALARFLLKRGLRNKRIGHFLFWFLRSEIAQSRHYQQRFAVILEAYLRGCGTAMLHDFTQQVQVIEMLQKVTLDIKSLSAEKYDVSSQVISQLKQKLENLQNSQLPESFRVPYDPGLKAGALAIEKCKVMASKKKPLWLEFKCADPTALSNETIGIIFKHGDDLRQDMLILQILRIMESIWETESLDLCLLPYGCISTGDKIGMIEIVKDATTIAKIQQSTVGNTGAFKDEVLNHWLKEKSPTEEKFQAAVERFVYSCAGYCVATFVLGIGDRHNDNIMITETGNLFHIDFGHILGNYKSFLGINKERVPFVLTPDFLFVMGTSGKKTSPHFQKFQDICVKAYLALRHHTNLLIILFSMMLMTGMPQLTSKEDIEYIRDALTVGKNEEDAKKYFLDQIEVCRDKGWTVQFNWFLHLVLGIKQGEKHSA
Protocol: as §1, §2
On kinases PI3Kα, PI3Kβ and PI3Kγ, the final detection concentration of the compound was 10 μM. 100× concentration was prepared, i.e., 1000 μM. 90 μL of 100% DMSO was added to the second well in row A on a 96-well plate, 10 μL of a 10 mM compound solution was then added, and 3-fold serial dilution was made to obtain a total of 10 concentrations.
as §3
50 nL of the compound was transferred into a 384-well plate using ECHO550.
Preparation of 2× kinase solution: the kinase was added to a 1× kinase buffer to prepare a 2× enzyme solution. […]
as §4

PI3Kδ = biological target: T3, PI3Kδ (Homo sapiens, UniProt O00329); test: Akt phosphorylation in Raji cells stimulated by IgM (AlphaLISA); details: phosphorylation of Akt, read-out: IC50 PI3Kδ Cell-based
T3 construct: host or cells: Raji cells
T3 sequence (O00329 whole entry): as the sequence (O00329 whole entry) above
T3 sequence (P27986 whole entry partner): as the sequence (P27986 whole entry partner) above
Protocol: (§5) In addition, taking Sample 6 as an example, the inhibitory effects thereof on PI3Kα, PI3Kβ, PI3Kγ and PI3Kδ in corresponding cells were determined. The activity of PI3Kα was detected by the phosphorylation level of Akt in C2Cl2 cells stimulated by IGF-1, the activity of PI3Kβ was detected by the phosphorylation level of Akt in PC-3 cells stimulated by LPA, the activity of PI3Kγ was detected by the phosphorylation level of Akt in Raw264.7 cells stimulated by c5α, and the activity of PI3Kδ was detected by the phosphorylation level of Akt in Raji cells stimulated by IgM. The phosphorylation level of Akt in cells was determined by means of AlphaLISA technique from PerkinElemer.
(§6) The C2C12 cells, PC-3 cells, Raw264.7 cells and Raji cells were all purchased from ATCC.

PI3Kβ = biological target: T4, PI3Kβ (Homo sapiens, UniProt P42338); test: Akt phosphorylation in PC-3 cells stimulated by LPA (AlphaLISA); details: phosphorylation of Akt, read-out: IC50 PI3Kβ Cell-based
T4 construct: host or cells: PC-3 cells
Protocol: as §5, §6

PI3Kα = biological target: T5, PI3Kα (Mus musculus, UniProt P42337); test: Akt phosphorylation in C2Cl2 cells stimulated by IGF-1 (AlphaLISA); details: phosphorylation of Akt, C2C12 cells, read-out: IC50 PI3Kα Cell-based
T5 construct: host or cells: C2C12 cells
T5 sequence (P42337 whole entry): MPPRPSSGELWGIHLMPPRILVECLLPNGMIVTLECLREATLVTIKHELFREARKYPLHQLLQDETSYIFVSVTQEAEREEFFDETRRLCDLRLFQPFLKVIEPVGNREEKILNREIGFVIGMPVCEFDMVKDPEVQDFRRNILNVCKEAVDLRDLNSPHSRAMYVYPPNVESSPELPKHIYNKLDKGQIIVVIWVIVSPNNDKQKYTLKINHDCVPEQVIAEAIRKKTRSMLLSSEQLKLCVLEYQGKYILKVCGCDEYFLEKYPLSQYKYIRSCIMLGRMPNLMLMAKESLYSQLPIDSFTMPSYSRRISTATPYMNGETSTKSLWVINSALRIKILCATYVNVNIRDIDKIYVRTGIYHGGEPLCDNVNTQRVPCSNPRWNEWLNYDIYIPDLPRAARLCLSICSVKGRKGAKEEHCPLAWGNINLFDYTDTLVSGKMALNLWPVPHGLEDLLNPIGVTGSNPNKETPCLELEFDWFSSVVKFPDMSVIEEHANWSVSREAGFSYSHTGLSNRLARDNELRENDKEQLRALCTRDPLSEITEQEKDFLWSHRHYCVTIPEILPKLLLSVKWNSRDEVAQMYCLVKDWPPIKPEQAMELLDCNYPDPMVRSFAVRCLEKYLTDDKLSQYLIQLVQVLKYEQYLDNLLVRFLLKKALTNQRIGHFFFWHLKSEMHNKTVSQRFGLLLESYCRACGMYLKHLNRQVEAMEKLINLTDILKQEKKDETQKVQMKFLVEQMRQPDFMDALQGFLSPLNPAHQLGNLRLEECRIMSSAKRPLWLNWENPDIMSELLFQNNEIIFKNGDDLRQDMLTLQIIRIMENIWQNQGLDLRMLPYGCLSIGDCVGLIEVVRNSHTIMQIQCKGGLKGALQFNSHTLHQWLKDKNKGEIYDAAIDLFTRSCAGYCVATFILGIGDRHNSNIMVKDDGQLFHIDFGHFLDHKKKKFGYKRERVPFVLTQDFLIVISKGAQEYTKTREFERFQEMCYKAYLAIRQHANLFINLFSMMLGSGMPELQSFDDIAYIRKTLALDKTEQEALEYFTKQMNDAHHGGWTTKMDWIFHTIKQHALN
T5 sequence (P26450 whole entry partner): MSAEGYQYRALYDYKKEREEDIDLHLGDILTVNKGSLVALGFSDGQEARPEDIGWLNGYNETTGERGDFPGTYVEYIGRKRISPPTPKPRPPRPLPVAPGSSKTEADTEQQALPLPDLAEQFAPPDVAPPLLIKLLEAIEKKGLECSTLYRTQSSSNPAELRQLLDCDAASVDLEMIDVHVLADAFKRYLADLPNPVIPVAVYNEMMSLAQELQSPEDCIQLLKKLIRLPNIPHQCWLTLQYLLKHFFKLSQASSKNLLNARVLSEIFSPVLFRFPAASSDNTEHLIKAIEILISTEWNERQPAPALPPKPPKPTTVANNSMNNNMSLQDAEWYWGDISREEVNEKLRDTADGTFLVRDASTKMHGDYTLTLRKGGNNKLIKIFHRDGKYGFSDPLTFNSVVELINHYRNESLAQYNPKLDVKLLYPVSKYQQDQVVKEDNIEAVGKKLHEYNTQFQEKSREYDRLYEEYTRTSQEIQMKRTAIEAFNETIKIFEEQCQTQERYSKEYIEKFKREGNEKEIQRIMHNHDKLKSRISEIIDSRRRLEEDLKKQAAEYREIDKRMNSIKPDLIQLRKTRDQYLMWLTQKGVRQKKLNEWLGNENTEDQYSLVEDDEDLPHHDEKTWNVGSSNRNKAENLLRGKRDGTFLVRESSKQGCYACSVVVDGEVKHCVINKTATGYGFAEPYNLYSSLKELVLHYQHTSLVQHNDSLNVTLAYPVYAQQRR
Protocol: as §5, §6

DoHH-2 = test: Proliferation of lymphoma cell line in vitro, DoHH-2; assay type: cell-based; details: Homo sapiens, read-out: absolute IC50 (AbsIC50), proliferation
mouse breast cancer 4T1 = test: Mouse breast cancer 4T1 subcutaneous transplantation tumor model; assay type: in vivo
Text: (§7) WT cell subcutaneous transplantation tumor model.

[2] = tested on: mouse colorectal cancer CT26. WT cell; test: Mouse colorectal cancer CT26. WT cell subcutaneous transplantation tumor model; assay type: in vivo
Text: as §7

Q: With C[C@H](Nc1nc(N)nc(N)c1C#N)c1cc2ccc(F)cc2nc1-c1ccccn1 [p-toluenesulfonate of Compound A] as the compound, how does the Solubility ([1]; FaSSIF (pH 6.52), 30 min) read?
A: 570 µg/mL (≈ 1.42 mM)

Q: And the Solubility ([1]; FaSSIF (pH 6.52), 2 h)?
A: 560 µg/mL (≈ 1.4 mM)

Q: What about the Solubility ([1]; FaSSIF (pH 6.52), 24 h) of the same compound?
A: 550 µg/mL (≈ 1.37 mM)

Q: And the pH of filtrate ([1]; FaSSIF (pH 6.52), 0.5 h)?
A: 6.27

Q: What about the pH of filtrate ([1]; FaSSIF (pH 6.52), 2 h) of the same compound?
A: 6.10

Q: And the pH of filtrate ([1]; FaSSIF (pH 6.52), 24 h)?
A: 5.38

Q: And the pH of filtrate ([1]; FeSSIF (pH 4.99), 0.5 h)?
A: 4.81

Q: And the pH of filtrate ([1]; FeSSIF (pH 4.99), 2 h)?
A: 4.80

Q: What about the pH of filtrate ([1]; FeSSIF (pH 4.99), 24 h) of the same compound?
A: 4.69

Q: And the solubility at 30 min ([1]; FeSSIF, pH 4.99, fessif, FeSSIF (pH 4.99), 30 min)?
A: 1310 µg/mL (≈ 3.27 mM)

Q: And the solubility at 2 h ([1]; FeSSIF, pH 4.99, fessif, FeSSIF (pH 4.99), 2 h)?
A: 2740 µg/mL (≈ 6.84 mM)

Q: What about the solubility at 24 h ([1]; FeSSIF, pH 4.99, fessif, FeSSIF (pH 4.99), 24 h) of the same compound?
A: 3570 µg/mL (≈ 8.92 mM)

Q: What about the pH of filtrate ([1]; SGF (pH 1.21), 0.5 h) of the same compound?
A: 1.05

Q: And the pH of filtrate ([1]; SGF (pH 1.21), 2 h)?
A: 1.10

Q: What about the pH of filtrate ([1]; SGF (pH 1.21), 24 h) of the same compound?
A: 1.11

Q: What about the solubility at 30 min ([1]; SGF, pH 1.21, simulated gastric fluid, SGF (pH 1.21), 30 min) of the same compound?
A: > 5440 µg/mL

Q: What about the solubility at 2 h ([1]; SGF, pH 1.21, simulated gastric fluid, SGF (pH 1.21), 2 h) of the same compound?
A: > 5400 µg/mL

Q: And the solubility at 24 h ([1]; SGF, pH 1.21, simulated gastric fluid, SGF (pH 1.21), 24 h)?
A: > 5350 µg/mL

Q: What about the IC50 (PI3Kδ (p110δ/p85a)) of the same compound?
A: 0.49 nM

Q: And the IC50 (PI3Kγ (p110γ))?
A: 4.8 nM

Q: What about the IC50 (PI3Kδ) of the same compound?
A: 0.95 nM

Q: What about the IC50 (PI3Kβ) of the same compound?
A: 126 nM

Q: And the IC50 (PI3Kα)?
A: 3520 nM

Q: What about the IC50 (DoHH-2) of the same compound?
A: < 100 nM

Q: What about the “effect on tumor volume growth” value (mouse breast cancer 4T1) of the same compound?
A: significant inhibitory effect

Q: And the “effect on tumor volume growth” value [2]?
A: significant inhibitory effect

— patent publication US20240182407A1, “QUINOLINE COMPOUND SALT OR CRYSTAL FORM, PREPARATION METHOD THEREFOR, AND APPLICATION THEREOF” (Nanjing Zenshine Pharmaceuticals Co., Ltd., priority 2021, published 2024)
